Source: US20250197406A1, “INDAZOLES AS HEMATOPOIETIC PROGENITOR KINASE 1 (HPK1) INHIBITORS AND METHODS FOR USING SAME” (1ST Biotherapeutics, Inc., priority 2022, published 2025)
Structures can show the parent of a compound that is named as a salt.

Target: recombinant human HPK1 (Homo sapiens (Human), UniProt Q92918)
Test: HPK1 kinase assay (Promega ADP-Glo kinase assay)
Assay type: biochemical
Conditions: In vitro activity against HPK1, 5 ng HPK1, MBP substrate, ATP 25 μM, 30° C. 40 minutes
Summary of the method: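 IC50 was derived from percent inhibition across a range of compound concentrations. Recombinant human HPK1 (5 ng) phosphorylated MBP for 40 min at 30 °C in Tris buffer pH 7.5 with 20 mM MgCl2, with ATP added as a 25 µM solution and 0.5% DMSO. ADP formed was read by ADP-Glo luminescence.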

Chain of recombinant human HPK1 (Q92918 whole entry): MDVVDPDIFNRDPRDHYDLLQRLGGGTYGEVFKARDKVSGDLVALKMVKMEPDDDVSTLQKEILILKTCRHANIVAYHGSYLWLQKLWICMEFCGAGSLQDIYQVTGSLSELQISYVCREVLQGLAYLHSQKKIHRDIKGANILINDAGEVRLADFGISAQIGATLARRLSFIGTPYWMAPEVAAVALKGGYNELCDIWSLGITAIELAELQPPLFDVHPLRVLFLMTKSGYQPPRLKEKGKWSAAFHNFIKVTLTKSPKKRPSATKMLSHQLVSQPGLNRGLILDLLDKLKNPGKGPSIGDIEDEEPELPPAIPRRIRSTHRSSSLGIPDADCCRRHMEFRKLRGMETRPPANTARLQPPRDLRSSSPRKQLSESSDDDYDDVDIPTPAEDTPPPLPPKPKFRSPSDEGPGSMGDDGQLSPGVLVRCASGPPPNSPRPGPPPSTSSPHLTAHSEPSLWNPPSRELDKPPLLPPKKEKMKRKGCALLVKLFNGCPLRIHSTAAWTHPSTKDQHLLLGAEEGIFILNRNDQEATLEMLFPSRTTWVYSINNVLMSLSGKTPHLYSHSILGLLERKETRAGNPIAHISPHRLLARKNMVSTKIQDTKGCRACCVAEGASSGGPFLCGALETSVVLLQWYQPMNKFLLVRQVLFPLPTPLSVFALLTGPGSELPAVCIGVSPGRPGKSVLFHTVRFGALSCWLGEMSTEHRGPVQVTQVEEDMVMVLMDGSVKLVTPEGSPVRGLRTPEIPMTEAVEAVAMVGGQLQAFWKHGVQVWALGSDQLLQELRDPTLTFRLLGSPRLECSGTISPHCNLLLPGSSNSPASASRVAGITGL

| SMILES | IC50 [nM] |
| --- | --- |
| CC(=O)Nc1cn2cc(-c3c(Cl)c(F)c(OC4CN(C(C)=O)C4)c4[nH]ncc34)ncc2n1 [Example 145, N-(6-(7-((1-acetylazetidin-3-yl)oxy)-5-chloro-6-fluoro-1H-indazol-4-yl)imidazo[1,2-a]pyrazin-2-yl)acetamide] | 501 to 1000 |
| CC(=O)Nc1cn2cc(-c3c(Cl)c(F)c(CN4CCC(O)C4)c4[nH]ncc34)ncc2n1 (stereo not shown) [Example 151, N-(6-(5-chloro-6-fluoro-7-((3-hydroxypyrrolidin-1-yl)methyl)-1H-indazol-4-yl)imidazo[1,2-a]pyrazin-2-yl)acetamide] | 501 to 1000 |
| CC(C)Nc1c(F)c(Cl)c(-c2cn3cc(NC(=O)C(C)(C)C)nc3cn2)c2cn[nH]c12 [Example 82, N-(6-(5-chloro-6-fluoro-7-(isopropylamino)-1H-indazol-4-yl)imidazo[1,2-a]pyrazin-2-yl)pivalamide] | 101 to 500 |
| CC(=O)Nc1cn2cc(-c3c(Cl)c(F)c(OC4CNC4)c4[nH]ncc34)ncc2n1 [Example 147, N-(6-(7-(azetidin-3-yloxy)-5-chloro-6-fluoro-1H-indazol-4-yl)imidazo[1,2-a]pyrazin-2-yl)acetamide formate] | 501 to 1000 |
| CC(=O)N(C)c1cn2cc(-c3c(Cl)c(F)c(NC(C)C)c4[nH]ncc34)ncc2n1 [Example 102, N-(6-(5-chloro-6-fluoro-7-(isopropylamino)-1H-indazol-4-yl)imidazo[1,2-a]pyrazin-2-yl)-N-methylacetamide] | 501 to 1000 |
| CC(C)Nc1c(F)c(Cl)c(-c2cn3cc(N4CCOCC4)nc3cn2)c2cn[nH]c12 [Example 91, 5-chloro-6-fluoro-N-isopropyl-4-(2-morpholinoimidazo[1,2-a]pyrazin-6-yl)-1H-indazol-7-amine] | 501 to 1000 |
| CC(NC(=O)C1CC1)c1c(F)c(C(F)F)c(-c2cn3cc(NC(=O)[C@@H]4C[C@@H]4F)nc3cn2)c2cn[nH]c12 (stereo partly drawn) [Example 76, (1S,2S)-N-(6-(7-(1-(cyclopropanecarboxamido)ethyl)-5-(difluoromethyl)-6-fluoro-1H-indazol-4-yl)imidazo[1,2-a]pyrazin-2-yl)-2-fluorocyclopropane-1-carboxamide] | < 100 |
| CC(C)Nc1c(F)c(Cl)c(-c2cn3cc(NC(=O)CCO)nc3cn2)c2cn[nH]c12 [Example 130, N-(6-(5-chloro-6-fluoro-7-(isopropylamino)-1H-indazol-4-yl)imidazo[1,2-a]pyrazin-2-yl)-3-hydroxypropanamide] | < 100 |
| CC(C)Nc1c(F)c(Cl)c(-c2cn3cc(NC(=O)N4CCOCC4)nc3cn2)c2cn[nH]c12 [Example 84, N-(6-(5-chloro-6-fluoro-7-(isopropylamino)-1H-indazol-4-yl)imidazo[1,2-a]pyrazin-2-yl)morpholine-4-carboxamide] | < 100 |
| CC(C)Nc1c(F)c(Cl)c(-c2cn3cc(NC4CCOC4)nc3cn2)c2cn[nH]c12 (stereo not shown) [Example 101, 6-(5-chloro-6-fluoro-7-(isopropylamino)-1H-indazol-4-yl)-N-(tetrahydrofuran-3-yl)imidazo[1,2-a]pyrazin-2-amine] | 101 to 500 |
| COc1c(F)c(NC(C)C)c2[nH]ncc2c1-c1cn2cc(NC(=O)[C@@H]3C[C@@H]3C#N)nc2cn1 [Example 164, (1R,2S)-2-cyano-N-(6-(6-fluoro-7-(isopropylamino)-5-methoxy-1H-indazol-4-yl)imidazo[1,2-a]pyrazin-2-yl)cyclopropane-1-carboxamide] | < 100 |
| CC(=O)Nc1cn2cc(-c3c(Cl)c(F)c(CN4CC(O)C4)c4[nH]ncc34)ncc2n1 [Example 150, N-(6-(5-chloro-6-fluoro-7-((3-hydroxyazetidin-1-yl)methyl)-1H-indazol-4-yl)imidazo[1,2-a]pyrazin-2-yl)acetamide] | 501 to 1000 |
| Cc1c(F)c(C(C)NC(=O)C2CC2)c2[nH]ncc2c1-c1cn2cc(NC(=O)[C@@H]3C[C@@H]3F)nc2cn1 (stereo partly drawn) [Example 69, (1S,2S)-N-(6-(7-(1-(cyclopropanecarboxamido)ethyl)-6-fluoro-5-methyl-1H-indazol-4-yl)imidazo[1,2-a]pyrazin-2-yl)-2-fluorocyclopropane-1-carboxamide] | < 100 |
| O=C(Nc1cn2cc(-c3c(C(F)(F)F)c(F)c(C(O)C4CC4)c4[nH]ncc34)ncc2n1)[C@@H]1C[C@@H]1CO (stereo partly drawn) [Example 118, (1R,2S)-N-(6-(7-(cyclopropyl(hydroxy)methyl)-6-fluoro-5-(trifluoromethyl)-1H-indazol-4-yl)imidazo[1,2-a]pyrazin-2-yl)-2-(hydroxymethyl)cyclopropane-1-carboxamide] | < 100 |
| CC(C)Nc1c(F)c(C(=O)O)c(-c2cn3cc(NC(=O)[C@@H]4C[C@@H]4F)nc3cn2)c2cn[nH]c12 [Example 73, 6-fluoro-4-(2-((1S,2S)-2-fluorocyclopropane-1-carboxamido)imidazo[1,2-a]pyrazin-6-yl)-7-(isopropylamino)-1H-indazole-5-carboxylic acid] | 501 to 1000 |
| Cc1c(F)c(C2CCOC2)c2[nH]ncc2c1-c1cn2cc(NC(=O)[C@@H]3C[C@@H]3F)nc2cn1 (stereo partly drawn) [Example 6, (1S,2S)-2-fluoro-N-(6-(6-fluoro-5-methyl-7-(tetrahydrofuran-3-yl)-1H-indazol-4-yl)imidazo[1,2-a]pyrazin-2-yl)cyclopropane-1-carboxamide] | < 100 |
| CC(=O)N1CC(Oc2c(F)c(Cl)c(-c3cn4cc(NC(=O)[C@@H]5C[C@@H]5F)nc4cn3)c3cn[nH]c23)C1 [Example 142, (1S,2S)-N-(6-(7-((1-acetylazetidin-3-yl)oxy)-5-chloro-6-fluoro-1H-indazol-4-yl)imidazo[1,2-a]pyrazin-2-yl)-2-fluorocyclopropane-1-carboxamide] | 101 to 500 |

The remaining lines, values ahead:

| IC50 [nM] | SMILES |
| --- | --- |
| < 100 | Cc1c(F)c(C(C)CN2C(=O)c3ccccc3C2=O)c2[nH]ncc2c1-c1cn2cc(NC(=O)[C@@H]3C[C@@H]3F)nc2cn1 (stereo partly drawn) [Example 22, (1S,2S)-N-(6-(7-(1-(1,3-dioxoisoindolin-2-yl)propan-2-yl)-6-fluoro-5-methyl-1H-indazol-4-yl)imidazo[1,2-a]pyrazin-2-yl)-2-fluorocyclopropane-1-carboxamide] |
| < 100 | CC(C)Nc1c(F)c(Cl)c(-c2cn3cc(NC(=O)[C@@H]4C[C@@H]4CO)nc3cn2)c2cn[nH]c12 [Example 38, (IR,2S)-N-(6-(5-chloro-6-fluoro-7-(isopropylamino)-1H-indazol-4-yl)imidazo[1,2-a]pyrazin-2-yl)-2-(hydroxymethyl)cyclopropane-1-carboxamide] |
| < 100 | COC1CCCC1c1c(F)c(C)c(-c2cn3cc(NC(=O)[C@@H]4C[C@@H]4F)nc3cn2)c2cn[nH]c12 (stereo partly drawn) [Example 16, (1S,2S)-2-fluoro-N-(6-(6-fluoro-7-(2-methoxycyclopentyl)-5-methyl-1H-indazol-4-yl)imidazo[1,2-a]pyrazin-2-yl)cyclopropane-1-carboxamide] |
| < 100 | Cc1c(F)c(NC(C)C)c2[nH]ncc2c1-c1cn2cc(NC(=O)[C@H]3C[C@H]3F)nc2cn1 [Example 33] |
| < 100 | COc1c(F)c(C(C)O)c2[nH]ncc2c1-c1cn2cc(NC(=O)[C@@H]3C[C@@H]3F)nc2cn1 (stereo partly drawn) [Example 128, (1S,2S)-2-fluoro-N-(6-(6-fluoro-7-(1-hydroxyethyl)-5-methoxy-1H-indazol-4-yl)imidazo[1,2-a]pyrazin-2-yl)cyclopropane-1-carboxamide] |
| < 100 | CC(C)Nc1c(F)c(Cl)c(-c2cn3cc(NC(=O)C4CC4)nc3cn2)c2cn[nH]c12 [Example 46, N-(6-(5-chloro-6-fluoro-7-(isopropylamino)-1H-indazol-4-yl)imidazo[1,2-a]pyrazin-2-yl)cyclopropanecarboxamide] |
| < 100 | CN(C)c1c(F)c(C(F)(F)F)c(-c2cn3cc(NC(=O)[C@H]4C[C@H]4F)nc3cn2)c2cn[nH]c12 [Example 27, (1R,2R)-N-(6-(7-(dimethylamino)-6-fluoro-5-(trifluoromethyl)-1H-indazol-4-yl)imidazo[1,2-a]pyrazin-2-yl)-2-fluorocyclopropane-1-carboxamide] |
| < 100 | CC(C)Nc1c(F)c(Cl)c(-c2cn3cc(NC(=O)C(F)(F)F)nc3cn2)c2cn[nH]c12 [Example 66, N-(6-(5-chloro-6-fluoro-7-(isopropylamino)-1H-indazol-4-yl)imidazo[1,2-a]pyrazin-2-yl)-2,2,2-trifluoroacetamide] |
| < 100 | CC(C)Nc1c(F)c(Cl)c(-c2cn3cc(NC(=O)c4ccccc4)nc3cn2)c2cn[nH]c12 [Example 57, N-(6-(5-chloro-6-fluoro-7-(isopropylamino)-1H-indazol-4-yl)imidazo[1,2-a]pyrazin-2-yl)benzamide] |
| < 100 | CC(C)Nc1c(F)c(Cl)c(-c2cn3cc(NC(=O)C4(N)CC4)nc3cn2)c2cn[nH]c12 [Example 78, 1-amino-N-(6-(5-chloro-6-fluoro-7-(isopropylamino)-1H-indazol-4-yl)imidazo[1,2-a]pyrazin-2-yl)cyclopropane-1-carboxamide] |
| < 100 | Cc1c(F)c(C2CCCC2O)c2[nH]ncc2c1-c1cn2cc(NC(=O)[C@@H]3C[C@@H]3F)nc2cn1 (stereo partly drawn) [Example 9, (1S,2S)-2-fluoro-N-(6-(6-fluoro-7-(2-hydroxycyclopentyl)-5-methyl-1H-indazol-4-yl)imidazo[1,2-a]pyrazin-2-yl)cyclopropane-1-carboxamide] |
| < 100 | CCOC(=O)Nc1cn2cc(-c3c(Cl)c(F)c(NC(C)C)c4[nH]ncc34)ncc2n1 [Example 114, ethyl (6-(5-chloro-6-fluoro-7-(isopropylamino)-1H-indazol-4-yl)imidazo[1,2-a]pyrazin-2-yl)carbamate] |
| < 100 | CC(C)Nc1c(F)c(Cl)c(-c2cn3cc(NC(=O)CN(C)C)nc3cn2)c2cn[nH]c12 [Example 103, N-(6-(5-chloro-6-fluoro-7-(isopropylamino)-1H-indazol-4-yl)imidazo[1,2-a]pyrazin-2-yl)-2-(dimethylamino)acetamide] |
| < 100 | CC(=O)Nc1cn2cc(-c3c(Cl)c(F)c([C@H](C)NC=O)c4[nH]ncc34)ncc2n1 [Example 140, (S)-N-(6-(5-chloro-6-fluoro-7-(1-formamidoethyl)-1H-indazol-4-yl)imidazo[1,2-a]pyrazin-2-yl)acetamide] |
